This note sets out measurements from US5789431A, “Naphthoquinone antitumor compound and method” (The University of North Carolina at Chapel Hill, priority 1996, dated 1998).

Each structure is given as a SMILES string.

For data set [1], the system named is MDA-MB-435. Briefly: in vitro breast cancer cell growth inhibition (NCI screen).
Data set [2] has as its system M14. Briefly: in vitro melanoma cell growth inhibition (NCI screen).
For data set [3], the system named is PC-3. Description: in vitro prostate cancer cell growth inhibition (NCI screen).
In data set [4] the test system is MCF7/ADR-RES. Briefly: in vitro breast cancer cell growth inhibition (NCI screen).
For data set [5], the system named is SNB-75. Briefly: in vitro CNS cancer cell growth inhibition (NCI screen).
The subject of data set [6] is T-47D. Briefly: in vitro breast cancer cell growth inhibition (NCI screen).
In data set [7] the test system is SK-MEL-5. Description: in vitro melanoma cell growth inhibition (NCI screen).
Data set [8] relates to MALME-3M. The data set is described as above.
Data set [9] has as its system OVCAR-3. Briefly: in vitro ovarian cancer cell growth inhibition (NCI screen).
Data set [10] deals with UACC-257. Briefly: in vitro melanoma cell growth inhibition (NCI screen).
Data set [11] deals with HT 29. Briefly: in vitro colon cancer cell growth inhibition (NCI screen).
For data set [12], the system named is COLO-205. Described as above.
The test system of data set [13] is NCI-H522. Briefly: in vitro non-small cell lung cancer cell growth inhibition (NCI screen).
Data set [14] relates to OVCAR-8. Briefly: in vitro ovarian cancer cell growth inhibition (NCI screen).
Data set [15] concerns MOLT-4. Description: in vitro leukemia cell growth inhibition (NCI screen).
The subject of data set [16] is RXF-393. Briefly: in vitro renal cancer cell growth inhibition (NCI screen).
Data set [17] has as its system human tumor cell lines. It is filed as cell-based. To be noted: Homo sapiens; cancer cell panel, general / most cell lines; read-out: logGI50 values in the cancer cell line panel (converted).
For data set [18], the system named is OVCAR-4. Description: in vitro ovarian cancer cell growth inhibition (NCI screen). The settings on record: OVACR-4.
Data set [19] concerns UO-31. Description: in vitro renal cancer cell growth inhibition (NCI screen).
Data set [20] relates to M19-MEL. Description: in vitro melanoma cell growth inhibition (NCI screen).
The test system of data set [21] is SK-MEL-2. The description is as above.
The subject of data set [22] is UACC-62. The data set is described as above.
In data set [23] the test system is SF-539. Briefly: in vitro CNS cancer cell growth inhibition (NCI screen).
Data set [24] has as its system HL-60(TB). Briefly: in vitro leukemia cell growth inhibition (NCI screen).
The test system of data set [25] is NCI-H460. Briefly: in vitro non-small cell lung cancer cell growth inhibition (NCI screen).
The test system of data set [26] is NCI-H23. The description is as above.
Data set [27] concerns HCT-116. Briefly: in vitro colon cancer cell growth inhibition (NCI screen).
For data set [28], the system named is K-562. Description: in vitro leukemia cell growth inhibition (NCI screen).
Data set [29] relates to HOP-92. Description: in vitro non-small cell lung cancer cell growth inhibition (NCI screen).
Data set [30] has as its system LOX1MVI. Description: in vitro melanoma cell growth inhibition (NCI screen).
The test system of data set [31] is HCT-15. Description: in vitro colon cancer cell growth inhibition (NCI screen).
Data set [32] has as its system SW 620. The data set is described as above.
The test system of data set [33] is CCRF-CEM. Briefly: in vitro leukemia cell growth inhibition (NCI screen).
Data set [34] deals with RPMI-8226. The description is as above.
The test system of data set [35] is DLD-1. Briefly: in vitro colon cancer cell growth inhibition (NCI screen).
For data set [36], the system named is SR. Briefly: in vitro leukemia cell growth inhibition (NCI screen).
Data set [37] deals with LXFL 529. Briefly: in vitro non-small cell lung cancer cell growth inhibition (NCI screen).
The subject of data set [38] is XF-498. Description: in vitro CNS cancer cell growth inhibition (NCI screen).

With `CCn1c(-c2ccccc2)nc2c1C(=O)c1ccccc1C2=O` [Compound 25], the “cytotoxicity log GI50” value in [1] is recorded as -4.80 M; in [2] it was -4.81 M; in data set [3] it was -4.99 M; in data set [4] it was -4.88 M; in data set [5], -4.61 M; in [6], -5.65 M. In addition, the “cytotoxicity log GI50” value in data set [7] was -4.95 M; in data set [8], -5.06 M; in data set [9], -5.23 M; in [10] it was -5.41 M; in data set [11], -5.05 M; in data set [12], -4.85 M. Also, the “cytotoxicity log GI50” value in data set [13] is recorded as -4.82 M; in data set [14], -4.85 M; in [15], -4.83 M; in data set [16], -4.81 M; in data set [18] it was -4.90 M. Besides, the GI50 in data set [17] was ~10 µM.

`Cc1nc2c(n1CC(C)C)C(=O)c1ccccc1C2=O` [Compound 7]: the “cytotoxicity log GI50” value is given as -4.58 M in [19]; -4.80 M in data set [20]; -4.59 M in [21]; -4.68 M in [22]; -4.61 M in data set [23]; -4.73 M in data set [7]. For the same molecule, the “cytotoxicity log GI50” value in data set [8] is given as -4.69 M; in [9], -4.60 M; in data set [24], -4.64 M; in data set [10], -4.75 M; in data set [25] it was -4.63 M; in data set [13], -4.58 M. In addition, the “cytotoxicity log GI50” value in [26] was -4.74 M; in data set [27], -4.68 M; in data set [28] it was -4.52 M; in [29] it was -4.99 M.

Take `COc1ccc(-n2c(CCC(=O)O)nc3c2C(=O)c2ccccc2C3=O)cc1` [Compound 62]: the “cytotoxicity log GI50” value in data set [30] is recorded as -4.55 M; in data set [6], -4.48 M; in data set [13], -4.46 M.

With `CCC(C)NC1=C(NC(C)=O)C(=O)c2ccccc2C1=O` (stereo not shown) [Compound 30], the “cytotoxicity log GI50” value is -4.34 M in [31]; -4.81 M in [30]; -4.65 M in data set [32]; -4.66 M in [33]; -4.87 M in [34]; -4.39 M in data set [9]. Moreover, the “cytotoxicity log GI50” value in [24] is listed as -4.76 M; in data set [35], -4.56 M; in data set [28] it was -4.36 M.

For `O=C(O)CCc1nc2c(n1-c1ccccc1)C(=O)c1ccccc1C2=O` [Compound 60], the “cytotoxicity log GI50” value in data set [6] is listed as -4.19 M; in [13] it was -4.42 M; in data set [27], -4.30 M; in data set [29] it was -7.65 M.

Regarding `CCC(CC)n1c(C)nc2c1C(=O)c1ccccc1C2=O` [Compound 10], the “cytotoxicity log GI50” value is listed as -4.71 M in [19]; -4.83 M in [20]; -4.59 M in [36]; -4.56 M in [21]; -5.04 M in data set [31]; -4.71 M in data set [30]. In addition, the “cytotoxicity log GI50” value in data set [22] is listed as -4.99 M; in data set [5], -4.69 M; in [7], -4.80 M; in data set [8], -4.58 M; in [37], -4.71 M; in data set [9], -4.59 M. Also, the “cytotoxicity log GI50” value in data set [24] is on record as -4.97 M; in data set [10], -4.62 M; in data set [35] it was -4.61 M; in [12], -4.57 M; in [25], -4.68 M; in data set [26], -4.67 M. The results for the “cytotoxicity log GI50” value in [27], in data set [28] and in [29] were -4.71 M, -4.68 M and -4.65 M, respectively.

Regarding `CCC(C)(C)n1c(C)nc2c1C(=O)c1ccccc1C2=O` [Compound 12], the “cytotoxicity log GI50” value in data set [20] was -4.80 M; in data set [36], -5.03 M; in [21] it was -4.73 M; in [31], -4.64 M; in data set [30], -4.71 M; in [22], -4.87 M. Also, the “cytotoxicity log GI50” value in [7] is -4.80 M; in data set [37] it was -4.86 M; in data set [24], -5.12 M; in data set [35], -4.81 M; in [12], -4.77 M; in data set [25] it was -4.91 M. The “cytotoxicity log GI50” value in data set [15] is -4.73 M; in data set [27] it was -4.87 M; in data set [16], -4.68 M; in data set [28], -4.87 M; in data set [38] it was -4.77 M.

On to `CCNC1=C(NC(=O)CC)C(=O)c2ccccc2C1=O` [Compound 45], for which the “cytotoxicity log GI50” value is -4.19 M in data set [31]; -4.50 M in data set [2]; -4.37 M in [3]; -4.23 M in [4]; -4.22 M in data set [32]; -4.25 M in data set [33]. The “cytotoxicity log GI50” value in data set [7] is -4.27 M; in data set [8], -4.64 M; in data set [9], -4.49 M; in data set [10] it was -4.52 M; in data set [11], -4.46 M; in data set [12], -4.33 M. Further, the results for the “cytotoxicity log GI50” value in data set [13], in data set [27] and in [16] were -4.34 M, -4.44 M and -4.32 M, respectively.
